For data set [1], the system named is hslo(+) human BK channel gene (ZERO isoform) expressed in slo-1(null) worms. The data set can be described thus: C. elegans crawl speed, hslo(+) rescue on slo-1 null background. Type of data set: in vivo, Caenorhabditis elegans. To be noted: 750 μM LS3, 30 min; transgenic hslo(+) on slo-1(null) background; vs. slo-1(null): p < 0.001, N = 78–162. As to the method:
Worms were cultivated at 20 °C as described with OP50 bacteria. Worms cultured on plates contaminated with fungi or other bacteria were excluded from this study. The reference wild-type strain was N2 Bristol. The reference slo-1(null) strain and background for transgenic strains was NM1968, harboring the previously characterized null allele, js379[29]. Multi-site gateway technology (Invitrogen) was used to construct plasmids. […] of the native slo-1 promoter (Pslo-1) and the traditional unc-54 UTR were used in combination with slo-1a(cDNA)::mCherry for a rescue construct. To test rescue with the human BK channel, an hslo(ZERO isoform, cDNA)::mCherry version was constructed. The slo-1(+) and hslo(+) plasmids were injected at a concentration of 20 and 10 ng/μl, respectively. The co-injection reporter PCFJ90 (1.25 ng/μl) was used to ensure proper transformation of the arrays. As such, JPS345 carried vxEx345, an extrachromosomal array containing [Pslo-1::slo-1::mCherry::unc-54UTR,Pmyo-2::mCherry::unc-54UTR]. JPS340 carried […], an extrachromosomal array containing [Pslo-1::hslo::mCherry::unc-54UTR,Pmyo-2::mCherry::unc-54UTR].
Age-matched day one adults were cleaned of bacteria by letting them crawl around on an unseeded plate and then moved into a puddle of NGM or peptide dissolved in NGM on another unseeded plate. […]

Data set [2] addresses T1, human BKα channel (ZERO isoform) expressed in HEK293 cells (Homo sapiens, UniProt Q12791).
T1 construct: expressed in transfected cells; host or cells: HEK293 (ATCC), transient transfection with Lipofectamine 2000; EGFP cotransfected as a separate marker
The data set can be described thus: Patch-clamp recording, inside-out patches, intracellular application. The following applies: 50 nM LS3 applied to intracellular (internal) side; n.s., N = 6. Type of data set: cell-based.

Another data set has as its system 33 mammalian CNS targets. The data set can be described thus: NIMH-PDSP competition binding panel, all targets. The method, then: (§1) LS3 was screened against a comprehensive panel of CNS-based proteins. Detailed protocols can be found within the US National Institute of Mental Health Psychoactive Drug Screening Program (NIMH PDSP) Assay Protocol Book (version II), by B. L. Roth, March 2013 (available at: http://pdsp.med.unc.edu/PDSP%20Protocols%20II%202013-03-28.pdf). […] Radioactivity in the presence of the LS3 (sample) was calculated with the following equation and expressed as a percent inhibition: % inhibition = (sample CPM – non-specific CPM)/Total CPM – non-specific CPM) × 100. Total binding was measured with no competing ligand. Non-specific binding was measured in the presence of reference compound. The % inhibition by LS3 was measured 4 times for each receptor.

For another data set, the system named is 5HT 1A. The data set can be described thus: Competition radioligand binding (NIMH PDSP). To be noted: radioligand 8-OH-DPAT, measured 4 times. As to the method:
as §1

In another data set the test system is 5HT 1B. The data set can be described thus: Competition radioligand binding (NIMH PDSP). To be noted: radioligand GR127543, measured 4 times. The method, then:
as §1

The next data set concerns 5HT 2A. The data set can be described thus: Competition radioligand binding (NIMH PDSP). The following applies: radioligand Ketanserin, measured 4 times. As to the method: as §1
Another data set concerns 5HT 2B. The data set can be described thus: Competition radioligand binding (NIMH PDSP). To be noted: radioligand LSD, measured 4 times. As to the method: as §1
In the next data set the test system is Adrenergic Alpha1A. The data set can be described thus: Competition radioligand binding (NIMH PDSP). The following applies: radioligand Prazosin, measured 4 times. The method, then: as §1
For the next data set, the system named is Adrenergic Alpha2A. The data set can be described thus: Competition radioligand binding (NIMH PDSP). To be noted: radioligand Clonidine, measured 4 times. As to the method: as §1
A further data set concerns BZP rat brain site. The data set can be described thus: Competition radioligand binding (NIMH PDSP). The following applies: radioligand Flunitrazepam, measured 4 times. As to the method:
as §1

The next data set deals with Dopamine D1. The data set can be described thus: Competition radioligand binding (NIMH PDSP). The following applies: radioligand SCH233930, measured 4 times. The method, then: as §1
In a further data set the test system is Dopamine D2. The data set can be described thus: Competition radioligand binding (NIMH PDSP). The following applies: radioligand N-methylspiperone, measured 4 times. As to the method: as §1
In a further data set the test system is GABAA. The data set can be described thus: Competition radioligand binding (NIMH PDSP). To be noted: radioligand Muscimol, measured 4 times. The method, then: as §1
Another data set has as its system Histamine H1. The data set can be described thus: Competition radioligand binding (NIMH PDSP). The following applies: radioligand Pyrilamine, measured 4 times. The method, then: as §1
For another data set, the system named is Histamine H3. The data set can be described thus: Competition radioligand binding (NIMH PDSP). To be noted: radioligand α-methylhistamine, measured 4 times. The method, then:
as §1

For a further data set, the system named is NET. The data set can be described thus: Competition radioligand binding (NIMH PDSP). To be noted: radioligand Nisoxetine, measured 4 times. The method, then: as §1
Another data set has as its system Opioid DOR. The data set can be described thus: Competition radioligand binding (NIMH PDSP). The following applies: radioligand DADLE, measured 4 times. The method, then: as §1
The test system of the next data set is Opioid MOR. The data set can be described thus: Competition radioligand binding (NIMH PDSP). The following applies: radioligand DAMGO, measured 4 times. As to the method:
as §1

The subject of a further data set is SERT. The data set can be described thus: Competition radioligand binding (NIMH PDSP). The following applies: radioligand Citalopram, measured 4 times. The method, then: as §1
In the next data set the test system is Sigma 2. The data set can be described thus: Competition radioligand binding (NIMH PDSP). To be noted: radioligand DTG, measured 4 times. The method, then:
as §1

The test system of the next data set is hERG. The data set can be described thus: Competition radioligand binding (NIMH PDSP). To be noted: human, probe Dofetilide (radioligand), measured 4 times, read-out: % inhibition by 10 µM LS3. As to the method:
as §1

The subject of the next data set is mAcetylcholine M1. The data set can be described thus: Competition radioligand binding (NIMH PDSP). The following applies: radioligand QNB, measured 4 times.

“Also recorded” adds a separate entry of the source. Where a SMILES comes first, the peptide text is derived from it. Bridges are numbered along the chain shown (N, C = ends).

T1 sequence (Q12791 1-1178 isoform Q12791-5): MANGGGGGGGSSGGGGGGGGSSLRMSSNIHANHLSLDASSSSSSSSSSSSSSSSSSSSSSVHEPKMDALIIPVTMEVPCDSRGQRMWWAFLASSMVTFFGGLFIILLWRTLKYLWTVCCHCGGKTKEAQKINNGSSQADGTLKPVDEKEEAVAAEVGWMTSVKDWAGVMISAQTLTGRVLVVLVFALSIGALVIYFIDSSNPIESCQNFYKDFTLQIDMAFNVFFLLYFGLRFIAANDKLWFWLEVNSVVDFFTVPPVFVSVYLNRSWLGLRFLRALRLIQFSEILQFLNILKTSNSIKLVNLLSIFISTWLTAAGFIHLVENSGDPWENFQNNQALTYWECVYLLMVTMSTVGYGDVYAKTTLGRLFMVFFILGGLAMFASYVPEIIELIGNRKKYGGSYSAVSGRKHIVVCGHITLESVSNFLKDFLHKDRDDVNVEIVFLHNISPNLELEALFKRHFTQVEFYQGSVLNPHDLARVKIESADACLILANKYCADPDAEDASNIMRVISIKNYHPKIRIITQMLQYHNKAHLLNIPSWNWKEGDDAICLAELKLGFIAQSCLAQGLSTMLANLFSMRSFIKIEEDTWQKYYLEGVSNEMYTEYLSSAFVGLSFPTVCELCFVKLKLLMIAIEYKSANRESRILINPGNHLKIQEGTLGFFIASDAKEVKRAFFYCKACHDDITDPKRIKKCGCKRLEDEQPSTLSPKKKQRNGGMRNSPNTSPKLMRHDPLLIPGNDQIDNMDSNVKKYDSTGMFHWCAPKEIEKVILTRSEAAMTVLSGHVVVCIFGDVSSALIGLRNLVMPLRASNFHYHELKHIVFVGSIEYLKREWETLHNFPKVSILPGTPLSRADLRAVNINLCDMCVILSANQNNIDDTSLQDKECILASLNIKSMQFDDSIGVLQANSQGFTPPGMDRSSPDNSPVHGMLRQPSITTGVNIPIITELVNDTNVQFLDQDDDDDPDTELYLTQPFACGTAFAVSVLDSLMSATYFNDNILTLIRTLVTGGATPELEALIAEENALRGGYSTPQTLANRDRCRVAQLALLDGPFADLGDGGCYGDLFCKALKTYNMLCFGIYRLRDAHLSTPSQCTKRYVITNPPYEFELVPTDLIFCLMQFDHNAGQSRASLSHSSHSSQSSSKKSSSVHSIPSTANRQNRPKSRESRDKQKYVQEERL

As to `CC(C)C[C@@H]1NC(=O)CNC(=O)[C@H](CCCNC(=N)N)NC(=O)[C@H](CCCNC(=N)N)NC(=O)[C@@H](N)CSSC[C@@H](C(=O)O)NC(=O)[C@H](C(C)C)NC(=O)[C@H](CCC(N)=O)NC(=O)[C@H](C(C)C)NC1=O` [LS3] (H-CRRGLVQVC-OH; disulfide 1-9; N-terminus and C-terminus assumed), in data set [1], the “LS3-induced slowing response (reduction in crawl speed)” value is “rescued the LS3-induced slowing response”. Moreover, the “effect on Po (post vs. pre peptide)” value in data set [2] was “did not reduce Po; also recorded: Only when applied to the external side did LS3 significantly reduce Po”. The “interaction with known ligand binding sites on 33 mammalian CNS targets” value in the data set on 33 mammalian CNS targets (10 microM LS3) was “does not have high affinity interactions”. Besides, the “inhibition of radioligand binding” value in the data set with 33 mammalian CNS targets (10 microM LS3, all 33 targets, printed 'substantially less than 50%', each measured 4 times) is given as “less than 50%”. Moreover, the Ki at 33 mammalian CNS targets (inferred from less than 50% inhibition at 10 microM LS3, array of CNS targets) was > 10 µM. Besides, the “% inhibition by 10 µM LS3” value in the data set with 5HT 1A is 11.4%; in the data set on 5HT 1B, 2.8%; in the data set with 5HT 2A, 16.2%; in the data set with 5HT 2B it was 3.2%; in the data set on Adrenergic Alpha1A it was 11.3%; in the data set on Adrenergic Alpha2A, 3.2%. Also, the “% inhibition by 10 µM LS3” value in the data set with BZP rat brain site is recorded as 5.1%; in the data set on Dopamine D1, 15.7%; with Dopamine D2 it was 20.9%; in the data set on GABAA, 19.3%; in the data set with Histamine H1, 14.8%; with Histamine H3, 5.1%. For the same compound, the “% inhibition by 10 µM LS3” value in the data set on NET came out at 6.7%; with Opioid DOR, 1.9%; with Opioid MOR it was 2.2%; in the data set on SERT it was 0.1%; in the data set with Sigma 2 it was 24.3%; in the data set with mAcetylcholine M1, 12.6%. For the same compound, the inhibition at 10 µM with hERG was 21.2%.

These data come from article PMC5307958 (Scientific Reports, 2017).
